Data taken from US8673894B2 (Hoffmann-La Roche Inc., priority 2010, dated 2014).
Structures can show the parent of a compound that is named as a salt.

Experiments:
[1] = target: T1, endogenous cellular BACE2 (Rattus norvegicus, UniProt Q6IE75); assay: Assay for BACE inhibition by measuring cellular TMEM27 cleavage; assay type: cell-based; conditions: INS-TMEM27 (INS1e-derived) cells, shed human TMEM27 in supernatant by ELISA
T1 construct: endogenous cellular BACE2 in the Ins1e rat cell line; endogenous in cells; host or cells: INS-TMEM27 (INS1e-derived rat insulinoma cell line with doxycycline-inducible full-length human TMEM27)
T1 sequence (Q6IE75 63-514): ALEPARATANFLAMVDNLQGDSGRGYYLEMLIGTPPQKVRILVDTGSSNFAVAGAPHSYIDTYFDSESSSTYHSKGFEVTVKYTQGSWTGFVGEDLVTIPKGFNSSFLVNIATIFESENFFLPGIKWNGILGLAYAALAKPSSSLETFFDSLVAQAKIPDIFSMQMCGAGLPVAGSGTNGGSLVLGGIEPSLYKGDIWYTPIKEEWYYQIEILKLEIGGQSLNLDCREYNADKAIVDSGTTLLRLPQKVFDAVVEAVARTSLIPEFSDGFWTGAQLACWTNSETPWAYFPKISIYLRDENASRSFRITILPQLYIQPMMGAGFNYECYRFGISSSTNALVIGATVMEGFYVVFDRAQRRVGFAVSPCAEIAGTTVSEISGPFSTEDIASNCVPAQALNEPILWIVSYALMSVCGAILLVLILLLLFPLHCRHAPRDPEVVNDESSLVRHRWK
Procedure, shortened: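 INS1e rat cells with doxycycline-inducible human TMEM27 get inhibitor 2 h before doxycycline (500 ng/ml final), then 46 h further at 37° C. Shed TMEM27 in the supernatant is measured by sandwich ELISA, and the EC50 comes from a curve fit of the ELISA signal.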

Aβ40 = assay: Cellular Aβ-lowering assay; assay type: cell-based; conditions: HEK293 cells stably expressing human APP695, Aβ40 in supernatant by ELISA after 18-20 hrs; read-out: Cellular assay Abeta40 IC50
Procedure, shortened: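 HEK293 cells stably expressing human wild-type APP695 were treated with compound for 18-20 h at 37 °C in 0.8% v/v DMSO. Secreted Aβ40 in the supernatant was measured by sandwich ELISA (Aβ40 C-terminus-specific capture, HRP-4G8 detection, TMB read at 450 nm) and quantified against a pure Aβ peptide standard curve.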

Cc1nc(C(=O)Nc2ccc(F)c([C@@]3(C)N=C(N)COCC3(F)F)c2)co1 [Example 42, (R)-N-(3-(3-amino-6,6-difluoro-5-methyl-2,5,6,7-tetrahydro-1,4-oxazepin-5-yl)-4-fluorophenyl)-2-methyloxazole-4-carboxamide formate]
IC50 [1]: 2.4 nM | IC50 (Aβ40): 7.4 nM

C[C@]1(c2cc(NC(=O)c3ncc(F)cc3F)ccc2F)N=C(N)COCC1(F)F [Example 32, (R)-N-(3-(3-amino-6,6-difluoro-5-methyl-2,5,6,7-tetrahydro-1,4-oxazepin-5-yl)-4-fluorophenyl)-3,5-difluoropicolinamide formate]
IC50 [1]: 4.4 nM | IC50 (Aβ40): 4.5 nM

C[C@]1(c2cc(NC(=O)c3n[nH]cc3Cl)ccc2F)N=C(N)COCC1(F)F [Example 96, (R)-N-(3-(3-amino-6,6-difluoro-5-methyl-2,5,6,7-tetrahydro-1,4-oxazepin-5-yl)-4-fluorophenyl)-4-chloro-1H-pyrazole-3-carboxamide]
IC50 [1]: 295 nM | IC50 (Aβ40): 57 nM

C[C@]1(c2cc(NC(=O)c3ncccc3F)ccc2F)N=C(N)COCC1(F)F [Example 27, (R)-N-(3-(3-amino-6,6-difluoro-5-methyl-2,5,6,7-tetrahydro-1,4-oxazepin-5-yl)-4-fluorophenyl)-3-fluoropicolinamide, salt with formic acid]
IC50 [1]: 58 nM | IC50 (Aβ40): 44 nM

C[C@]1(c2cc(NC(=O)c3ccc(OCC(F)F)cn3)ccc2F)N=C(N)COCC1(F)F [Example 60, (R)-N-(3-(3-amino-6,6-difluoro-5-methyl-2,5,6,7-tetrahydro-1,4-oxazepin-5-yl)-4-fluorophenyl)-5-(2,2-difluoroethoxy)picolinamide formate]
IC50 [1]: 4160 nM | IC50 (Aβ40): 26 nM

CCn1cc(Cl)c(C(=O)Nc2ccc(F)c([C@@]3(C)N=C(N)COCC3(F)F)c2)n1 [Example 95, (R)-N-(3-(3-Amino-6,6-difluoro-5-methyl-2,5,6,7-tetrahydro-1,4-oxazepin-5-yl)-4-fluorophenyl)-4-chloro-1-ethyl-1H-pyrazole-3-carboxamide]
IC50 [1]: 66.3 nM | IC50 (Aβ40): 22 nM

Cc1ocnc1C(=O)Nc1ccc(F)c([C@@]2(C)N=C(N)COCC2(F)F)c1 [Example 98, (R)-N-(3-(3-Amino-6,6-difluoro-5-methyl-2,5,6,7-tetrahydro-1,4-oxazepin-5-yl)-4-fluorophenyl)-5-methyloxazole-4-carboxamide]
IC50 [1]: 131 nM | IC50 (Aβ40): 39 nM

CC1(C)C[C@@](C)(c2cc(NC(=O)c3ccc(OCC(F)(F)F)cn3)ccc2F)N=C(N)CO1 [Example 18, 5-(2,2,2-Trifluoro-ethoxy)-pyridine-2-carboxylic acid [3-((S)-3-amino-5,7,7-trimethyl-2,5,6,7-tetrahydro-[1,4]oxazepin-5-yl)-4-fluoro-phenyl]-amide]
IC50 [1]: 120 nM | IC50 (Aβ40): 22 nM

CC[C@]1(c2cc(NC(=O)c3ncc(Cl)cn3)ccc2F)N=C(N)COCC1(F)F [Example 80, (R)-N-(3-(3-Amino-5-ethyl-6,6-difluoro-2,5,6,7-tetrahydro-1,4-oxazepin-5-yl)-4-fluorophenyl)-5-chloropyrimidine-2-carboxamide]
IC50 [1]: 55.9 nM | IC50 (Aβ40): 23 nM

CC1(C)OCC(N)=N[C@](C)(c2cc(NC(=O)c3ccc(Cl)cn3)c(F)cc2F)C1(F)F [Example 118, (R)-N-(5-(3-amino-6,6-difluoro-5,7,7-trimethyl-2,5,6,7-tetrahydro-1,4-oxazepin-5-yl)-2,4difluorophenyl)-5-chloropicolinamide]
IC50 [1]: 14800 nM | IC50 (Aβ40): 340 nM

CC[C@]1(c2cc(NC(=O)c3ncccc3Cl)ccc2F)N=C(N)COCC1(F)F [Example 76, (R)-N-(3-(3-Amino-5-ethyl-6,6-difluoro-2,5,6,7-tetrahydro-1,4-oxazepin-5-yl)-4-fluorophenyl)-3-chloropicolinamide]
IC50 [1]: 568 nM | IC50 (Aβ40): 4 nM

C[C@@]1(c2cc(NC(=O)c3ccc(OCC(F)(F)F)cn3)ccc2F)CCOCC(N)=N1 [Example 12, 5-(2,2,2-Trifluoro-ethoxy)-pyridine-2-carboxylic acid [3-((S)-3-amino-5-methyl-2,5,6,7-tetrahydro-[1,4]oxazepin-5-yl)-4-fluoro-phenyl]-amide]
IC50 [1]: 120 nM | IC50 (Aβ40): 9 nM

CC[C@]1(c2cc(NC(=O)c3ccc(C#N)cn3)ccc2F)N=C(N)COCC1(F)F [Example 79, (R)-N-(3-(3-Amino-5-ethyl-6,6-difluoro-2,5,6,7-tetrahydro-1,4-oxazepin-5-yl)-4-fluorophenyl)-5-cyanopicolinamide]
IC50 [1]: 67.1 nM | IC50 (Aβ40): 70 nM

C[C@]1(c2cc(NC(=O)c3ncccc3Cl)ccc2F)N=C(N)COCC1(F)F [Example 36, (R)-N-(3-(3-amino-6,6-difluoro-5-methyl-2,5,6,7-tetrahydro-1,4-oxazepin-5-yl)-4-fluorophenyl)-3-chloropicolinamide formate]
IC50 [1]: 8.4 nM | IC50 (Aβ40): 38 nM

CC1(C)C[C@@](C)(c2cc(NC(=O)c3ncc(C(F)(F)F)cc3Cl)ccc2F)N=C(N)CO1 [Example 21, 3-Chloro-5-trifluoromethyl-pyridine-2-carboxylic acid [3-((S)-3-amino-5,7,7-trimethyl-2,5,6,7-tetrahydro-[1,4]oxazepin-5-yl)-4-fluoro-phenyl]-amide]
IC50 [1]: 8.7 nM | IC50 (Aβ40): 3.2 nM

NC1=N[C@@]2(c3cc(NC(=O)c4ccc(OCC(F)(F)F)cn4)ccc3F)C[C@H]2COC1 (racemic) [Example 2, 5-(2,2,2-Trifluoro-ethoxy)-pyridine-2-carboxylic acid [3-((1SR,7RS)-3-amino-5-oxa-2-aza-bicyclo[5.1.0]oct-2-en-1-yl)-4-fluoro-phenyl]-amide]
IC50 [1]: > 10000 nM | IC50 (Aβ40): 2200 nM

CC1(C)OCCC(C)(c2cc(NC(=O)c3ccc(F)cn3)ccc2F)N=C1N (centres unmarked) [Example 28, 5-Fluoro-pyridine-2-carboxylic acid [3-(3-amino-2,2,5-trimethyl-2,5,6,7-tetrahydro-[1,4]oxazepin-5-yl)-4-fluoro-phenyl]-amide]
IC50 [1]: 130 nM | IC50 (Aβ40): 340 nM

C[C@@]1(c2cc(NC(=O)c3ccc(F)cn3)ccc2F)C[C@@H](c2ccccc2)OCC(N)=N1 [Example 68, 5-Fluoro-pyridine-2-carboxylic acid [3-((5S,7S)-3-amino-5-methyl-7-phenyl-2,5,6,7-tetrahydro-[1,4]oxazepin-5-yl)-4-fluoro-phenyl]-amide]
IC50 [1]: 5250 nM | IC50 (Aβ40): 3850 nM

C[C@@]1(c2cc(NC(=O)C3(C(F)(F)F)CCC3)ccc2F)CCOCC(N)=N1 [Example 24, 1-Trifluoromethyl-cyclobutanecarboxylic acid [3-((S)-3-amino-5-methyl-2,5,6,7-tetrahydro-[1,4]oxazepin-5-yl)-4-fluoro-phenyl]-amide]
IC50 [1]: 28 nM | IC50 (Aβ40): 5870 nM

C[C@]1(c2cc(NC(=O)c3cnc(OCF)cn3)ccc2F)N=C(N)COCC1(F)F [Example 103, (R)-N-(3-(3-Amino-6,6-difluoro-5-methyl-2,5,6,7-tetrahydro-1,4-oxazepin-5-yl)-4-fluorophenyl)-5-(fluoromethoxy)pyrazine-2-carboxamide formate]
IC50 [1]: 307 nM | IC50 (Aβ40): 2.9 nM

C[C@]1(c2cc(NC(=O)c3cnc(C(F)F)cn3)ccc2F)N=C(N)COCC1(F)F [Example 105, (R)-N-(3-(3-Amino-6,6-difluoro-5-methyl-2,5,6,7-tetrahydro-1,4-oxazepin-5-yl)-4-fluorophenyl)-5-(difluoromethyl)pyrazine-2-carboxamide formate]
IC50 [1]: 378 nM | IC50 (Aβ40): 13 nM

C[C@]1(c2cc(NC(=O)c3ncc(C(F)(F)F)cc3Cl)ccc2F)N=C(N)COCC1(F)F [Example 25, 3-Chloro-5-trifluoromethyl-pyridine-2-carboxylic acid [3-((R)-3-amino-6,6-difluoro-5-methyl-2,5,6,7-tetrahydro-[1,4]oxazepin-5-yl)-4-fluoro-phenyl]-amide]
IC50 [1]: 51 nM | IC50 (Aβ40): 7 nM

C[C@]1(c2cc(NC(=O)c3ncc(Cl)cn3)ccc2F)N=C(N)COCC1(F)F [Example 46, 5-Chloro-pyrimidine-2-carboxylic acid [3-((R)-3-amino-6,6-difluoro-5-methyl-2,5,6,7-tetrahydro-[1,4]oxazepin-5-yl)-4-fluoro-phenyl]-amide]
IC50 [1]: 6.5 nM | IC50 (Aβ40): 1.7 nM

C[C@]1(c2cc(NC(=O)c3ncc(F)cc3Cl)ccc2F)N=C(N)COCC1(F)F [Example 40, (R)-N-(3-(3-amino-6,6-difluoro-5-methyl-2,5,6,7-tetrahydro-1,4-oxazepin-5-yl)-4-fluorophenyl)-3-chloro-5-fluoropicolinamide formate]
IC50 [1]: 6.2 nM | IC50 (Aβ40): 5.9 nM

C[C@]1(c2cc(NC(=O)c3ccccn3)ccc2F)N=C(N)COCC1(F)F [Example 35, (R)-N-(3-(3-amino-6,6-difluoro-5-methyl-2,5,6,7-tetrahydro-1,4-oxazepin-5-yl)-4-fluorophenyl)picolinamide formate]
IC50 [1]: 29 nM | IC50 (Aβ40): 14 nM
